Laboratory results taken from US10039846B2, “Compositions targeting bradykinin receptor B1 for medical imaging of cancer and other disorders” (BRITISH COLUMBIA CANCER AGENCY BRANCH, priority 2012, dated 2018).
“And” between values parts separate entries of the source, which are not always exact repeats. Identical values can stand only once. Like-named read-outs stand apart in the source and are kept apart here. Each block holds one molecule with its values, some of them ahead of it. Where a SMILES comes first, the peptide text is derived from it. [ ]: non-standard residue; d: D form. The star is where a group is joined. DOTA = O=C(O)CN1CCN(CC(=O)O)CCN(CC(=O)*)CCN(CC(=O)O)CC1; Hyp = O=C(O)[C@@H]1C[C@@H](O)CN1; Cha = N[C@@H](CC1CCCCC1)C(=O)O; PEG2 = NCCOCCOCCC(=O)O

Tests used:
[1] = target: T1, B1R (Homo sapiens, UniProt P46663); test: Competitive binding assay with 3H radioligand on CHO-K1 cell membranes over-expressing human B1R; set-up: purchased Perkin Elmer Inc., Waltham, Mass; ES-091-M400UA; host or cells: CHO-K1 cells over-expressing human B1R (membrane preparation)
T1 sequence (P46663 1-353): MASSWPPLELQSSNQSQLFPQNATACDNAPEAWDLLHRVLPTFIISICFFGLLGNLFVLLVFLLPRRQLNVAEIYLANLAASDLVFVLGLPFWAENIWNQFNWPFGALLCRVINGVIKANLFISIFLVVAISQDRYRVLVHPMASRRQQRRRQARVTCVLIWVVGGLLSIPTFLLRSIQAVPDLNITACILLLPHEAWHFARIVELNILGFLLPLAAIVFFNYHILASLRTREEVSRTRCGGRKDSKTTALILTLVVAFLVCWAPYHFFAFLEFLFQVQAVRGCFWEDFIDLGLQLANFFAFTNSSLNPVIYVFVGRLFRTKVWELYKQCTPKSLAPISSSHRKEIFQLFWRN
Procedure: The ability of the peptide and small molecule B1R targeting compounds to bind to B1R was assessed in competitive binding assay as described below.
Preparation of Cell Membranes: Ready to use cell membranes (12.5 μg/μL) from CHO-K1 cells over-expressing human B1R were obtained from Perkin Elmer Inc., Waltham, Mass. (cat. no. ES-091-M400UA). Binding using cell membranes from HEK293T::GFP::hB1R (from Example 3) was also tested. In the latter case, the membranes were prepared as follows: 90% confluent cells grown in large flask, T225, were detached and pelleted in a 50 mL conical tube using centrifuge at 1,200 rpm for 5 minutes. Afterward, cells were re-suspended in 20-30 mL of cold 50 mM Tris-HCl pH 7.4. Ice cold cells were disrupted for 15 seconds at 15,000 rpm with a Polytron PT3100 (Kinematica AG, Lucerne, Switzerland). The solution was aliquoted and centrifuged at 4° C. at 17,000×g for 30 minutes. The supernatant was discarded, and then the pellet was dissolved in 1-2 mL of cold salt solution containing 50 mM Tris-HCl pH 7.4 and 100 mM NaCl and incubated for 1 hour on ice. The cell membranes were pelleted by centrifugation at 4° C. at 17,000×g for 30 minutes and resuspended in 200-600 μL of 50 mM Tris-HCl pH 7.4. The cell membrane extract was stored at −80° C. Protein concentration was determined by Bradford assay (cat. no. R1271, Fermentas, Thermo Fisher Scientific, Burlington, ON). 50 ug of cell membranes per well was used for the competitive binding assay. […] Radio-labelled control was H-3 labelled [Leu^9,des-Arg^10] kallidin obtained either from American Radiolabelled Chemicals Inc, St. Louis, Mo.
Competitive Binding Assays: Assays were performed using 96-well MultiScreenHTS with glass fiber filter and PVDF support obtained from Millipore Corp, Billerica, Mass. (cat. no. MSFB N6B, lot no. R8AN42424). Wells of the MultiScreen plate were pre-soaked with 0.5% of cold Poly(ethyleneimine) (PEI) (cat. no. P3143, Sigma-Aldrich, St. Louis, Mo.) for 30 minutes. Afterward, wells were washed once with 50 mM of Tris-HCl pH 7.4. Total volume per wells was 200 μL. A fixed concentration of the hot radioligand (1, 3, 5 or 12.5 nM depending on the radioligand; see Table 5) was incubated with progressively higher concentrations (10^−11 to 10^−4 M) of the non-radioactive competitor of interest in the presence of cell membranes (50 μg/well) and the assay buffer (50 mM Tris-HCl pH 7.4, 5 mM MgCl2). The MultiScreen plate was then incubated at 27° C. for 15 minutes with agitation at 300 rpm. The assay was stopped by suctioning the reaction solution through the bottom PVDF membrane filter and discarded. The membranes were washed 7× with 150 μL/well of cold 50 mM Tris-HCl pH 7.4. Radioactivity was counted using 1450 MicroBeta TriLux—Microplate Scintillation and Luminescence Counter (Perkin Elmer Inc., Shelton, Conn.).

[2] = in vivo; details: NODSCID IL2RKO, mouse, iv, total radioactivity
Procedure: Tumour Implantation: Imaging and biodistribution experiments were performed using NODSCID IL2RKO mice. Each cage, equipped with enrichments, contained three or four mice. The mice were maintained and the experiments were conducted in accordance with the guidelines established by Canadian Council on Animal Care and approved by Animal Ethics Committee of the University of British Columbia. Mice were housed under pathogen-free conditions and kept on twelve hour light and twelve hour dark cycle in the Animal Research Centre, British Columbia Cancer Research Centre, Vancouver, Canada.
Mice were anesthetised briefly with 2.5% isoflurane in 2.0 L/min of oxygen during cell implantation. After wiping the skin surrounding the injection site with an alcohol prep pad, a 31-Gauge needle was used to inject 10^7 HEK293T::GFP and HEK293T::hB1R cells in matrigel (1:1) on the back of the mouse. Imaging was performed once the tumour lump was visible. Tumour size was measured by CT and calculated using the ellipsoid formula: V^3mm=width×length×thickness×0.524.
PET/CT Imaging: Each tumour-bearing mouse was injected with ˜3.7 MBq of Ga-68 labelled Peptide 3 through the tail vein. The mice were imaged using the BC Cancer Agency Inveon microPET/CT scanner that has a 1.3 mm spatial resolution and a high sensitivity. Briefly, a localization CT scan was first obtained using 3 overlapping positions to cover the entire mouse. This CT scan was used for attenuation and scatter correction after segmentation for reconstructing the PET images. A dynamic acquisition was then performed for 60 minutes, with the mouse under isoflurane sedation. The animals were kept warm by a monitoring system with an integrated heating pad and physiological acquisition system. At the end of the acquisition, the mice were euthanized, and major organs were collected, weighed, and counted to determine the % injected dose per gram of tissue (% ID/g). The images were reconstructed using OSEM/3DMAP iterative reconstruction, and representative images of Ga-68 labelled Peptide 3 at 1 h post-injection are shown in FIG. 4.

[3] = test system: HEK-293 and HEK-293/BKRB1 tumours; test: Biodistribution of Ga-68 Peptide 12 in tumour-bearing mice; type: in vivo, mouse; set-up: Biodistribution Spleen Average / Biodistribution Liver Average / Biodistribution Adrenal glands Average / Biodistribution Kidney Average / Biodistribution Muscle Average / Biodistribution Brain Average / Biodistribution Blood Average / Biodistribution Fat Average: unit not given here; details: 1 h post-injection
Excerpt: Peptide 12 is an […] version of Peptide 3 that was developed by substituting the C-terminal Leu residue with a D-Phe residue.

[4] = Hot 12.5 nM BK-AG-ARC, CHO-K1 membranes, individual assays, read-out: Ki
[5] = average of individual competitive binding assays, read-out: Affinity Ki (nM) Average

Structure (SMILES): Cc1ccc(S(=O)(=O)N2c3ccccc3NC(=O)[C@H]2CC(=O)Nc2ccc(N3CCN(CCF)CC3)cc2)cc1 [Compound 7]
Ki [1, 4]: 113 nM and 39.5 nM and 260 nM | Ki ([1]; Hot 12.5 nM BK-ANT-ARC, CHO-K1 membranes, individual assays, read-out: Ki): 20.7 nM | Ki [1, 5]: 108 nM

Structure (SMILES): COc1cc(C)c(S(=O)(=O)N(C)CCOCC(=O)N2CCC(C3CCN(CCF)CC3)CC2)c(C)c1 [Compound 15]
Ki ([1]; Hot 4.5 nM BK-ANT-ARC, CHO-K1 membranes, individual assays, read-out: Ki): 0.81 nM | Ki [1, 5]: 0.81 nM

Structure (SMILES): CC(C)C[C@H](NC(=O)[C@@H]1CCCN1C(=O)[C@H](CO)NC(=O)[C@H](CC1CCCCC1)NC(=O)CNC(=O)[C@@H]1C[C@@H](O)CN1C(=O)[C@@H]1CCCN1C(=O)[C@H](CCCNC(=N)N)NC(=O)[C@H](CCCCN)NC(=O)CCOCCOCCNC(=O)CN1CCN(CC(=O)O)CCN(CC(=O)O)CCN(CC(=O)O)CC1)C(=O)O [Ga-68 Peptide 3, ^68Ga-DOTA-PEG2-Lys-Arg-Pro-Hyp-Gly-Cha-Ser-Pro-Leu, metal not drawn] ({DOTA-PEG2}-KRP[Hyp]G[Cha]SPL-OH)
tissue uptake at 1 h ([2]; 3.7 MBq, % ID/g Blood Average): 0.26 %ID/g | tissue uptake at 1 h ([2]; 3.7 MBq, % ID/g Bone Average): 0.34 %ID/g | tissue uptake at 1 h ([2]; 3.7 MBq, % ID/g Brain Average): 0.03 %ID/g | tissue uptake at 1 h ([2]; 3.7 MBq, % ID/g Colon Average): 0.34 %ID/g | tissue uptake at 1 h ([2]; 3.7 MBq, % ID/g Fat Average): 0.12 %ID/g | tissue uptake at 1 h ([2]; 3.7 MBq, % ID/g Heart Average): 0.19 %ID/g | tissue uptake at 1 h ([2]; 3.7 MBq, % ID/g LEFT Tumour (B1R) Average): 1.32 %ID/g | tissue uptake at 1 h ([2]; 3.7 MBq, % ID/g Left Kidney Average): 5.14 %ID/g | tissue uptake at 1 h ([2]; 3.7 MBq, % ID/g Liver Average): 0.16 %ID/g | tissue uptake at 1 h ([2]; 3.7 MBq, % ID/g Lungs Average): 0.43 %ID/g | tissue uptake at 1 h ([2]; 3.7 MBq, % ID/g Muscle Average): 0.11 %ID/g | tissue uptake at 1 h ([2]; 3.7 MBq, % ID/g Pancreas Average): 0.13 %ID/g | tissue uptake at 1 h ([2]; 3.7 MBq, % ID/g Plasma Average): 0.77 %ID/g | tissue uptake at 1 h ([2]; 3.7 MBq, % ID/g RIGHT Tumour (GFP) Average): 0.23 %ID/g | tissue uptake at 1 h ([2]; 3.7 MBq, % ID/g Right Kidney Average): 6.79 %ID/g | tissue uptake at 1 h ([2]; 3.7 MBq, % ID/g Small Intestine Average): 0.2 %ID/g | tissue uptake at 1 h ([2]; 3.7 MBq, % ID/g Spleen Average): 0.11 %ID/g | tissue uptake at 1 h ([2]; 3.7 MBq, % ID/g Stomach Average): 0.11 %ID/g | tissue uptake at 1 h ([2]; % ID/g Tail Average): 0.45 %ID/g

Structure (SMILES): N=C(N)NCCC[C@H](NC(=O)[C@H](CCCCN)NC(=O)CCCCCNC(=O)CN1CCN(CC(=O)O)CCN(CC(=O)O)CCN(CC(=O)O)CC1)C(=O)N1CCC[C@H]1C(=O)N1C[C@H](O)C[C@H]1C(=O)NCC(=O)N[C@@H](CC1CCCCC1)C(=O)N[C@@H](CO)C(=O)N1CCC[C@H]1C(=O)N[C@H](Cc1ccccc1)C(=O)O [Ga-68 Peptide 12, ^68Ga-DOTA-Ahx-Lys-Arg-Pro-Hyp-Gly-Cha-Ser-Pro-(D-Phe), metal not drawn]
Biodistribution Adrenal glands Average ([3]; Adrenal glands): 0.001 | Biodistribution Blood Average ([3]; Blood): 0.039 | Biodistribution Bone Average ([3]; Bone): 0.093 %ID/g | Biodistribution Brain Average ([3]; Brain): 0.009 | Biodistribution Fat Average ([3]; Fat): 0.039 | Biodistribution Heart Average ([3]; Heart): 0.15 %ID/g | Biodistribution Kidney Average ([3]; Kidney): 6.436 | Biodistribution Large intestine Average ([3]; Large intestine): 0.149 %ID/g | Biodistribution Left tumour Average ([3]; Left tumour): 0.194 %ID/g | Biodistribution Liver Average ([3]; Liver): 0.129 | Biodistribution Lungs Average ([3]; Lungs): 0.8 %ID/g | Biodistribution Muscle Average ([3]; Muscle): 0.056 | Biodistribution Pancreas Average ([3]; Pancreas): 0.069 | Biodistribution Plasma Average ([3]; Plasma): 0.473 %ID/g | Biodistribution Right tumour Average ([3]; Right tumour, in %ID/g): 7.909 | Biodistribution Seminal glands Average ([3]; Seminal glands): 0.23 %ID/g | Biodistribution Skin Average ([3]; Skin): 0.223 %ID/g | Biodistribution Small intestine Average ([3]; Small intestine): 0.208 %ID/g | Biodistribution Spleen Average ([3]; Spleen): 0.127 | Biodistribution Tail Average ([3]; Tail): 0.226 %ID/g | Biodistribution Testes Average ([3]; Testes): 0.132 %ID/g

Continued, values first:

Ki [1, 4]: 1010 nM | Ki [1, 5]: 1010 nM
Structure (SMILES): Cc1ccc(S(=O)(=O)N2c3ccccc3NC(=O)[C@H]2CC(=O)NCCc2ccc(NCCF)cc2)cc1 [Compound 6]

Ki [1, 4]: 6920 nM | Ki [1, 5]: 6920 nM
Structure (SMILES): Cc1ccc(S(=O)(=O)N2c3ccccc3NC(=O)[C@H]2CC(=O)NCc2ccc(NCCF)cc2)cc1 [Compound 8]
